Test results as given in patent US3948911A, “Substituted quinoxaline-2-carboxamide 1,4-dioxides” (Pfizer Inc., priority 1974, dated 1976).
Values after ≈ are worked out from the molar mass of the structure shown.

Tested on: Strep. pyogenes
Assay: in vivo activity in mice infected with a lethal inoculum, survivors
Conditions: Streptococcus pyogenes, sc; subcutaneous, 50 mg./kg., survivors/treated mice; read-out: IN VIVO Survivors-SC Strep. pyogenes (converted)
Description: (§1) In determining in vivo activity of the quinoxaline-1,4-dioxides of this invention, the test compound is administered to mice which have been infected by […] injection of a lethal inoculum of pathogenic bacteria. The test compound is administered using a multiple dosing regimen and using either the oral (PO) or the subcutaneous (SC) route. The inoculum of bacteria varies from about 1 to about 10 times the amount needed to kill 100% of the mice under the conditions of the test. At the end of the test, the activity of the compound is assessed by counting the number of survivors among the treated animals.
(§2) In vitro and in vivo activity of representative compounds of this invention, determined as aforesaid, are reported in the following tabulation for compounds of the formula: ##SPC3##

| SMILES | responders at 50 mg/kg [%] |
| --- | --- |
| CC(=O)c1ccc2c(c1)[n+]([O-])c(C(=O)N(C)C)c(C)[n+]2[O-] [N(CH3)2 7-COCH3 CH3] | 60 |
| CC(=O)c1ccc2c(c1)[n+]([O-])c(C)c(C(N)=O)[n+]2[O-] [NH2 6-COCH3 CH3, 6- and 7-Acetyl-3-Methyl-2-Quinoxalinecarboxamide 1,4-dioxide] | 100 |
| CC(=O)c1ccc2c(c1)[n+]([O-])c(C(N)=O)c(C)[n+]2[O-] [NH2 7-COCH3 CH3, 6- and 7-Acetyl-3-Methyl-2-Quinoxalinecarboxamide 1,4-dioxide] | 100 |
| Cc1c(C(N)=O)[n+]([O-])c2cc(C3(C)OCCO3)ccc2[n+]1[O-] [NH2 7-OO.angle.C.angle.CH3 CH3] | 80 |
| CC(=O)c1ccc2c(c1)[n+]([O-])c(C)c(C(=O)NCCO)[n+]2[O-] [NHCH2 CH2 OH 6-COCH3 CH3] | 50 |
| CNC(=O)c1c(C)[n+]([O-])c2cc(C(C)=O)ccc2[n+]1[O-] [NHCH3 6-COCH3 CH3] | 60 |

Same assay, conditions: Streptococcus pyogenes; oral, 50 mg./kg., survivors/treated mice; read-out: IN VIVO Survivors (PO) Strep. pyogenes (converted)

| SMILES | responders at 50 mg/kg [%] |
| --- | --- |
| CC(=O)c1ccc2c(c1)[n+]([O-])c(C(=O)N(C)C)c(C)[n+]2[O-] [N(CH3)2 7-COCH3 CH3] | 20 |
| CC(=O)c1ccc2c(c1)[n+]([O-])c(C)c(C(N)=O)[n+]2[O-] [NH2 6-COCH3 CH3, 6- and 7-Acetyl-3-Methyl-2-Quinoxalinecarboxamide 1,4-dioxide] | 90 |
| CC(=O)c1ccc2c(c1)[n+]([O-])c(C(N)=O)c(C)[n+]2[O-] [NH2 7-COCH3 CH3, 6- and 7-Acetyl-3-Methyl-2-Quinoxalinecarboxamide 1,4-dioxide] | 80 |
| Cc1c(C(N)=O)[n+]([O-])c2cc(C3(C)OCCO3)ccc2[n+]1[O-] [NH2 7-OO.angle.C.angle.CH3 CH3] | 80 |
| CC(=O)c1ccc2c(c1)[n+]([O-])c(C)c(C(=O)NCCO)[n+]2[O-] [NHCH2 CH2 OH 6-COCH3 CH3] | 20 |
| CNC(=O)c1c(C)[n+]([O-])c2cc(C(C)=O)ccc2[n+]1[O-] [NHCH3 6-COCH3 CH3] | 40 |

Tested on: E. coli
Assay: as above
Conditions: Escherichia coli, sc, read-out: IN VIVO Survivors-SC E. coli
Description: as §1, §2

| SMILES | responders at 100 mg/kg [%] |
| --- | --- |
| CC(=O)c1ccc2c(c1)[n+]([O-])c(C)c(C(=O)NCCO)[n+]2[O-] [NHCH2 CH2 OH 6-COCH3 CH3] | 30 |

Same assay, conditions: Escherichia coli, sc; subcutaneous, 25 mg./kg., survivors/treated mice

| SMILES | responders at 25 mg/kg [%] |
| --- | --- |
| CC(=O)c1ccc2c(c1)[n+]([O-])c(C(=O)N(C)C)c(C)[n+]2[O-] [N(CH3)2 7-COCH3 CH3] | 0 |
| CC(=O)c1ccc2c(c1)[n+]([O-])c(C)c(C(N)=O)[n+]2[O-] [NH2 6-COCH3 CH3, 6- and 7-Acetyl-3-Methyl-2-Quinoxalinecarboxamide 1,4-dioxide] | 100 |
| CC(=O)c1ccc2c(c1)[n+]([O-])c(C(N)=O)c(C)[n+]2[O-] [NH2 7-COCH3 CH3, 6- and 7-Acetyl-3-Methyl-2-Quinoxalinecarboxamide 1,4-dioxide] | 100 |
| Cc1c(C(N)=O)[n+]([O-])c2cc(C3(C)OCCO3)ccc2[n+]1[O-] [NH2 7-OO.angle.C.angle.CH3 CH3] | 100 |
| CNC(=O)c1c(C)[n+]([O-])c2cc(C(C)=O)ccc2[n+]1[O-] [NHCH3 6-COCH3 CH3] | 80 |

Same assay, conditions: oral, 25 mg./kg., survivors/treated mice

| SMILES | IN VIVO Survivors (PO) E. coli |
| --- | --- |
| CC(=O)c1ccc2c(c1)[n+]([O-])c(C)c(C(N)=O)[n+]2[O-] [NH2 6-COCH3 CH3, 6- and 7-Acetyl-3-Methyl-2-Quinoxalinecarboxamide 1,4-dioxide] | 5/5 |
| Cc1c(C(N)=O)[n+]([O-])c2cc(C3(C)OCCO3)ccc2[n+]1[O-] [NH2 7-OO.angle.C.angle.CH3 CH3] | 3/5 |
| CNC(=O)c1c(C)[n+]([O-])c2cc(C(C)=O)ccc2[n+]1[O-] [NHCH3 6-COCH3 CH3] | 7/10 |

Tested on: Strep. pyogenes
Assay: in vitro antibacterial activity, two-fold serial dilution in Brain-Heart Infusion Broth, MIC
Type: cell-based
Conditions: Streptococcus pyogenes, overnight, anaerobic
Description: (§3) The broth is inoculated with bacteria and with the test quinoxaline-1,4-dioxide and then it is incubated overnight under anerobic conditions. On the next day, the test is read visually. The minimum inhibitory concentration (MIC) of the test compound is the lowest concentration which prevents turbidity, i.e., which prevents growth of the microorganism.
as §2

| SMILES | MIC [µg/mL] |
| --- | --- |
| CC(=O)c1ccc2c(c1)[n+]([O-])c(C(=O)N(C)C)c(C)[n+]2[O-] [N(CH3)2 7-COCH3 CH3] | 6.25 (≈ 21.6 µM) |
| CC(=O)c1ccc2c(c1)[n+]([O-])c(C)c(C(N)=O)[n+]2[O-] [NH2 6-COCH3 CH3, 6- and 7-Acetyl-3-Methyl-2-Quinoxalinecarboxamide 1,4-dioxide] | < 0.391 |
| CC(=O)c1ccc2c(c1)[n+]([O-])c(C(N)=O)c(C)[n+]2[O-] [NH2 7-COCH3 CH3, 6- and 7-Acetyl-3-Methyl-2-Quinoxalinecarboxamide 1,4-dioxide] | 0.391 (≈ 1.5 µM) |
| Cc1c(C(N)=O)[n+]([O-])c2cc(C3(C)OCCO3)ccc2[n+]1[O-] [NH2 7-OO.angle.C.angle.CH3 CH3] | 12.5 (≈ 40.9 µM) |
| CC(=O)c1ccc2c(c1)[n+]([O-])c(C)c(C(=O)NCCO)[n+]2[O-] [NHCH2 CH2 OH 6-COCH3 CH3] | < 0.391 |
| CNC(=O)c1c(C)[n+]([O-])c2cc(C(C)=O)ccc2[n+]1[O-] [NHCH3 6-COCH3 CH3] | 0.781 (≈ 2.84 µM) |

Tested on: E. coli
Assay: as above
Type: cell-based
Conditions: Escherichia coli; Brain-Heart Infusion Broth, overnight, anaerobic; read-out: IN VITRO MIC E. coli
Description: as §3, §2

| SMILES | MIC [µg/mL] |
| --- | --- |
| CC(=O)c1ccc2c(c1)[n+]([O-])c(C(=O)N(C)C)c(C)[n+]2[O-] [N(CH3)2 7-COCH3 CH3] | 6.25 (≈ 21.6 µM) |
| CC(=O)c1ccc2c(c1)[n+]([O-])c(C)c(C(N)=O)[n+]2[O-] [NH2 6-COCH3 CH3, 6- and 7-Acetyl-3-Methyl-2-Quinoxalinecarboxamide 1,4-dioxide] | < 0.391 |
| CC(=O)c1ccc2c(c1)[n+]([O-])c(C(N)=O)c(C)[n+]2[O-] [NH2 7-COCH3 CH3, 6- and 7-Acetyl-3-Methyl-2-Quinoxalinecarboxamide 1,4-dioxide] | < 0.391 |
| Cc1c(C(N)=O)[n+]([O-])c2cc(C3(C)OCCO3)ccc2[n+]1[O-] [NH2 7-OO.angle.C.angle.CH3 CH3] | 12.5 (≈ 40.9 µM) |
| CC(=O)c1ccc2c(c1)[n+]([O-])c(C)c(C(=O)NCCO)[n+]2[O-] [NHCH2 CH2 OH 6-COCH3 CH3] | < 0.391 |
| CNC(=O)c1c(C)[n+]([O-])c2cc(C(C)=O)ccc2[n+]1[O-] [NHCH3 6-COCH3 CH3] | < 0.391 |
